# Patent US5654320A, “Indazolecarboxamides” (Eli Lilly and Company, priority 1995, dated 1997)
# Where a name gives a salt, the structure may show the parent alone.
# Target: T1, 5-HT4 receptor (Rattus norvegicus, UniProt Q62758)
# T1 construct: esophagus smooth muscle, freshly removed from male Wistar rats; from tissue; host or cells: esophagus smooth muscle of male Wistar rats
# Assay: 5-HT4 receptor antagonism in carbamylcholine-contracted isolated esophagus smooth muscle (antagonism of serotonin-induced relaxation)
# Set-up: species or system male Wistar rats
# Conditions: not given
# Method: The test was carried out in esophagus smooth muscle, freshly removed from male Wistar rats weighing 250-300 g each. The rats were killed by cervical dislocation, and the esophagus was removed and dissected free of connective tissue. The esophagi were used as longitudinal preparations--obtaining two preparations from each animal. The tissues were tied with thread at each end with the lower end being tied to a stationary glass rod and the upper end to a force transducer.
# Tissues were mounted in organ baths containing 10 mL of modified Krebs' solution of the following composition (millimolar) NaCl 118.2; KCl 4.6; CaCl2.2H2 O 1.6; KH2 PO4 1.2; MgSO4 1.2; dextrose 10.0; and NaHCO3 24.8. Tissue bath solutions were maintained at 37° C. and aerated with 95% O2 -5% CO2. Tissues were placed under optimum resting force, 1 g, and were allowed to equilibrate for 1 hr before exposure to drugs. Isometric contractions were recorded as changes in grams of force on the Modular Instruments Inc. (Malvern, Pa.) model M4000 data acquisition system with Sensotec (Columbus, Ohio) model MBL 5514-02 transducers.
# For studies with partial agonists or antagonists, tissues were preincubated with vehicle or antagonist for 45 min. All drugs were prepared daily in deionized water and kept on ice during the course of the experiment. The tissues were contracted by incubation with 10^-7 -10^-5 M carbamylcholine, and were relaxed by the addition of serotonin at 10^-8 -10^-10 M, which treatment relaxed the tissue and reduced the contraction caused by carbamylcholine. Addition of a compound of the present invention antagonized the serotonin response and reduced the observed relaxations of the tissue. Repeated tests of each compound at various concentrations were carried out, and the concentration that caused a two-fold shift of the relaxation curve was calculated. That concentration is reported here as the negative logarithm. In each case, the SEM of the data has been calculated and is shown below, as is the number of experiments carried out with each compound.
# T1 sequence (Q62758 whole entry): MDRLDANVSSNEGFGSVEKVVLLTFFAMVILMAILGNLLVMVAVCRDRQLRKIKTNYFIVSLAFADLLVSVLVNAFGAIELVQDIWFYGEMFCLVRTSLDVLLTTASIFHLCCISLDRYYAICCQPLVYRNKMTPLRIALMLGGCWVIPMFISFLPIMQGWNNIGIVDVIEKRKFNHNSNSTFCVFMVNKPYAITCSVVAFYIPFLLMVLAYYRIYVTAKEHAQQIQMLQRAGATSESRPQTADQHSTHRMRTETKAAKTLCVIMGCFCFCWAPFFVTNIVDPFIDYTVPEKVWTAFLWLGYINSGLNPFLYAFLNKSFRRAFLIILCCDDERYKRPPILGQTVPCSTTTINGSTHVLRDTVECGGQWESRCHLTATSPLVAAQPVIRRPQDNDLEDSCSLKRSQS
row,SMILES,Kb
1,"CC(C)n1nc(C(=O)NCCN2CCC(NC(=O)Nc3ccc(F)cc3)CC2)c2ccccc21 [Example 36, N-[2-(4-(4-fluorophenylaminocarbonylamino)-1-piperidinyl)ethyl]-1-(2-propyl)-1H-indazole-3-carboxamide oxalate]",0.0251 µM
2,"CC(C)n1nc(C(=O)NCCN2CCC(NC(=O)OCc3ccccc3)CC2)c2ccccc21 [Example 8, N-[2-(4-benzyloxycarbonylamino-1-piperidinyl)ethyl]-1-(2-propyl)-1H-indazole-3-carboxamide oxalate]",0.00158 µM
3,"CC(C)n1nc(C(=O)NCCN2CCC(NC(=O)C34CC5CC(CC(O)(C5)C3)C4)CC2)c2ccccc21 [Example 37, N-[2-(4-(3-hydroxy-1-adamantylcarbonylamino)-1-piperidinyl)ethyl]-1-(2-propyl)-1H-indazole-3-carboxamide oxalate]",0.00126 µM
4,"CCCC(=O)NC1CCN(CCNC(=O)c2nn(C(C)C)c3ccccc23)CC1 [Example 30, N-[2-(4-butyrylamino-1-piperidinyl)ethyl]-1-(2-propyl)-1H-indazole-3-carboxamide oxalate]",0.0158 µM
5,"CC(C)n1nc(C(=O)NCCN2CCC(NC(=O)Nc3ccccc3)CC2)c2ccccc21 [Example 35, N-[2-(4-phenylaminocarbonylamino)-1-piperidinyl)ethyl]-1-(2-propyl)-1H-indazole-3-carboxamide oxalate]",0.01 µM
6,"CC(C)n1nc(C(=O)NCCN2CCC(NS(C)(=O)=O)CC2)c2ccccc21 [Example 24, N-[2-(4-methylsulfonylamino-1-piperidinyl)ethyl]-1-(2-propyl)-1H-indazole-3-carboxamide oxalate]",0.0126 µM
7,"CC(C)n1nc(C(=O)NCCN2CCOCC2)c2ccccc21 [Example 14, N-[2-(4-morpholinyl)ethyl]-1-(2-propyl)-1H-indazole-3-carboxamide hydrochloride]",0.0251 µM
8,"CC(C)n1nc(C(=O)NCCN2CCC(NC(=O)Cc3ccccc3)CC2)c2ccccc21 [Example 26, N-[2-(4-benzylcarbonylamino-1-piperidinyl)ethyl]-1-(2-propyl)-1H-indazole-3-carboxamide oxalate]",0.00398 µM
9,"CC(C)n1nc(C(=O)NCCN2CCC(N)CC2)c2ccccc21 [Example 23, N-[2-(4-amino-1-piperidinyl)ethyl]-1-(2-propyl)-1H-indazole-3-carboxamide dioxalate]",0.158 µM
10,"CC(C)n1nc(C(=O)NCCN2CCC(Cc3ccccc3)CC2)c2ccccc21 [Example 20, N-[2-(4-benzyl-1-piperidinyl)ethyl]-1-(2-propyl)-1H-indazole-3-carboxamideoxalate]",0.0501 µM
11,"CC(C)n1nc(C(=O)NCCN2CCC(NC(=O)C(C)(C)C)CC2)c2ccccc21 [Example 33, N-[2-(4-trimethylacetylamino-1-piperidinyl)ethyl]-1-(2-propyl)-1H-indazole-3-carboxamide oxalate]",0.00316 µM
12,"CC(C)n1nc(C(=O)NCCN2CCN(Cc3ccccc3)CC2)c2ccccc21 [Example 16, N-[2-(4-benzyl-1-piperazinyl)ethyl]-1-(2-propyl)-1H-indazole-3-carboxamidedihydrochloride]",0.01 µM
13,"CC(C)n1nc(C(=O)NCCN2CCC(NC(=O)C34CC5CC(C3)C(O)C(C5)C4)CC2)c2ccccc21 (centres unmarked) [Example 38, N-[2-(4-(4-hydroxy-1-adamantylcarbonylamino)-1-piperidinyl)ethyl]-1-(2-propyl)-1H-indazole-3-carboxamide oxalate]",0.002 µM
14,"CC(C)n1nc(C(=O)NCCN2CCN(C(=O)c3ccccc3)CC2)c2ccccc21 [Example 18, N-[2-(4-benzoyl-1-piperazinyl)ethyl]-1-(2-propyl)-1H-indazole-3-carboxamide oxalate]",0.0316 µM
15,"CC(=O)NC1CCN(CCNC(=O)c2nn(C(C)C)c3ccccc23)CC1 [Example 28, N-[2-(4-acetylamino-1-piperidinyl)ethyl]-1-(2-propyl)-1H-indazole-3-carboxamide oxalate]",0.00501 µM
16,"CC(C)n1nc(C(=O)NCCN2CCCCCC2)c2ccccc21 [Example 12, N-[2-(1-hexamethyleneiminyl)ethyl]-1-(2-propyl)-1H-indazole-3-carboxamide hydrochloride]",0.01 µM
17,"CC(C)n1nc(C(=O)NCCN2CCc3ccccc3C2)c2ccccc21 [Example 22, N-[2-(1,2,3,4-tetrahydro-2-isoquinolinyl)ethyl]-1-(2-propyl)-1H-indazole-3-carboxamide oxalate]",0.01 µM
18,"CC(C)n1nc(C(=O)NCCN2CCC(NC(=O)NCc3ccccc3)CC2)c2ccccc21 [Example 34, N-[2-(4-benzylaminocarbonylamino)-1-piperidinyl)ethyl]-1-(2-propyl)-1H-indazole-3-carboxamide oxalate]",0.00501 µM
19,"CC(C)n1nc(C(=O)NCCCCN2CCCCC2)c2ccccc21 [Example 6, N-[4-(1-piperidinyl)butyl]-1-(2-propyl)-1H-indazole-3-carboxamide oxalate]",0.00631 µM
20,"CC(C)n1nc(C(=O)NCCN2CCC(NC(=O)c3ccccc3)CC2)c2ccccc21 [Example 25, N-[2-(4-benzoylamino-1-piperidinyl)ethyl]-1-(2-propyl)-1H-indazole-3-carboxamide oxalate]",0.00251 µM
21,"CC(C)n1nc(C(=O)NCCN2CCCC2)c2ccccc21 [Example 10, N-[2-(1-pyrrolidinyl)ethyl]-1-(2-propyl)-1H-indazole-3-carboxamide hydrochloride]",0.02 µM
22,"CCCCC(=O)NC1CCN(CCNC(=O)c2nn(C(C)C)c3ccccc23)CC1 [Example 31, N-[2-(4-valerylamino-1-piperidinyl)ethyl]-1-(2-propyl)-1H-indazole-3-carboxamide]",0.02 µM
23,"CC(C)n1nc(C(=O)NCCCN2CCCCC2)c2ccccc21 [Example 4, N-[3-(1-piperidinyl)propyl]-1-(2-propyl)-1H-indazole-3-carboxamide hydrochloride]",0.00794 µM
24,"CC(C)n1nc(C(=O)NCCN2CCC(NC(=O)C34CC5CC(CC(C5)C3)C4)CC2)c2ccccc21 [Example 27, N-[2-(4-(1-adamantylcarbonylamino)-1-piperidinyl)ethyl]-1-(2-propyl)-1H-indazole-3-carboxamide oxalate]",0.000126 µM
25,"CCC(=O)NC1CCN(CCNC(=O)c2nn(C(C)C)c3ccccc23)CC1 [Example 29, N-[2-(4-propionylamino-1-piperidinyl)ethyl]-1-(2-propyl)-1H-indazole-3-carboxamide oxalate]",0.00316 µM
26,"CC(C)n1nc(C(=O)NCCN2CCCCC2)c2ccccc21 [Example 2, N-[2-(1-piperidinyl)ethyl]-1-(2-propyl)-1H-indazole-3-carboxamide hydrochloride]",0.01 µM
27,"CC(C)C(=O)NC1CCN(CCNC(=O)c2nn(C(C)C)c3ccccc23)CC1 [Example 32, N-[2-(4-isobutyrylamino-1-piperidinyl)ethyl]-1-(2-propyl)-1H-indazole-3-carboxamide oxalate]",0.00251 µM

# Same assay, conditions: negative logarithm of concentration that caused a two-fold shift of the serotonin relaxation curve; rat esophagus; 45 min preincubation; ± SEM (number of experiments); read-out: -Log KB (converted)
row,SMILES,Kb
1,"O=C(NCCN1CCCCC1)c1n[nH]c2ccccc12 [Example 1, N-[2-(1-piperidinyl)ethyl]-1H-indazole-3-carboxamide hydrochloride]",0.0316 µM

# Tested on: 5-HT4 receptor
# Assay: not given
# Conditions: presently known compound; cited from earlier work
row,SMILES,affinity at the 5-HT4 receptor
1,COc1cc(N)c(Cl)cc1C(=O)NC1CCN(CCCOc2ccc(F)cc2)CC1OC (centres unmarked) [cisapride],high affinity
